# Data as given in publication PMC6199744, “Development of Chemical Proteomics for the Folateome and Analysis of the Kinetoplastid Folateome” (ACS Infectious Diseases, 2018).
# Test system: L. major lysate proteins
# Assay: Multitargeted bead mixture chemoproteomics, single concentration competition, proteome-wide
# Type: binding
# Settings: for fold change: vehicle control = 1
structure (smiles),measurement,setting,value
NCCOCCOCC(=O)Nc1nc2ncc(CNc3ccc(C(=O)NC(CCC(=O)O)C(=O)O)cc3)nc2c(=O)[nH]1 (stereo not drawn) [compound 6],fold change,"protein LMJF.28.0710 HYPOTHETICAL PROTEIN, CONSERVED (SNARE associated Golgi protein, putative)",1
same,fold change vs vehicle control,"protein LMJF.28.0930 HY[…], CONSERVED",1.01
same,fold change vs vehicle control,protein LMJF.28.0960 40S RIBOSOMAL PROTEIN S14,1.09
same,fold change vs vehicle control,"protein LMJF.28.1530 ATP DEPENDENT DEAD-BOX HELICASE, PUTATIVE",0.91
same,fold change relative to vehicle control,"protein LMJF.28.1730, PROTEASOME REGULATORY NON-ATP-ASE SUBUNIT 2, PUTATIVE",1.1
same,fold change relative to vehicle control,"protein LMJF.28.2310, EUKARYOTIC TRANSLATION INITIATION FACTOR, PUTATIVE",1.1
same,fold change vs vehicle control,"protein LMJF.28.2430 VACUOLAR ATP SYNTHASE SUBUNIT B, PUTATIVE",0.97
same,fold change relative to vehicle control,"protein LMJF.28.2770, HEAT-SHOCK PROTEIN HSP70, PUTATIVE",1.35
same,fold change,"protein LMJF.28.2910 GLUTAMATE DEHYDROGENASE, PUTATIVE",0.9
same,fold change vs vehicle control,"protein LMJF.29.0120 PROTEASOME REGULATORY NON-ATPASE SUBUNIT, PUTATIVE",1
same,fold change,"protein LMJF.29.0620 ATP-BINDING CASSETTE PROTEIN SUBFAMILY A, MEMBER 10, PUTATIVE",0.81
same,fold change vs vehicle control,"protein LMJF.29.0760 […] BI[…], PUTATIVE,HEAT SHOCK PROTEIN 90, PUTATIVE",1.05
same,fold change relative to vehicle control,"protein LMJF.29.0850, HIGH MOBILITY GROUP PROTEIN HOMOLOG TDP-1, PUTATIVE",1.17
same,fold change vs vehicle control,"protein LMJF.29.0940 HY[…], CONSERVED",1.19
same,fold change vs vehicle control,protein LMJF.29.1160 TRYPAREDOXIN,0.8
same,fold change vs vehicle control,"protein LMJF.29.1240 HYPOTHETICAL PROTEIN, UNKNOWN FUNCTION",0.95
same,fold change vs vehicle control,protein LMJF.29.1270 100 kDa heat shock protein (Hsp100),1.02
same,fold change vs vehicle control,"protein LMJF.29.1310 CARNITINE/CHOLINE ACETYLTRANSFERASE, PUTATIVE",1.07
same,fold change relative to vehicle control,"protein LMJF.29.1760, PAR[…] PROTEIN 1D, PUTATIVE",1.02
same,fold change vs vehicle control,"protein LMJF.29.1780 DIPHTHAMIDE SYNTHESIS PROTEIN, PUTATIVE",0.96
same,fold change,"protein LMJF.29.2200 GTP-BINDING PROTEIN, PUTATIVE (dynamin-1-like protein)",1.03
same,fold change,protein LMJF.29.2310 ENOYL-COA HYDRATASE/ISOMERASE-LIKE PROTEIN,0.99
same,fold change vs vehicle control,"protein LMJF.29.2360 ASPARTYL AMINOPEPTIDASE, PUTATIVE,METALLO-PEPTIDASE, CLAN MH, FAMILY M20",0.95
same,fold change,protein LMJF.29.2860 40S RIBOSOMAL PROTEIN S19-LIKE PROTEIN,1.12
same,fold change,"protein LMJF.30.0580 HY[…], CONSERVED (AMP-binding enzyme, putative)",1.03
same,fold change,"protein LMJF.30.0850 SURFACE PROTEIN AMASTIN, PUTATIVE",0.98
same,fold change vs vehicle control,"protein LMJF.30.1250 PYRIDOXAL KINASE, PUTATIVE",1.24
same,fold change vs vehicle control,"protein LMJF.30.2580 RETICULON DOMAIN PROTEIN, 22 KDA POTENTIALLY AGGRAVATING PROTEIN (PAPLE22)",0.95
same,fold change relative to vehicle control,"protein LMJF.30.3090, HY[…], CONSERVED (RNA-binding protein 42, putative)",1.16
same,fold change vs vehicle control,"protein LMJF.30.3240 GLUTAMYL-TRNA SYNTHETASE, PUTATIVE",1.11
same,fold change,"protein LMJF.30.3380 PAS-DOMAIN CONTAINING PHOSPHOGLYCERATE KINASE, PUTATIVE",0.84
same,fold change,"protein LMJF.30.3430 HY[…], CONSERVED (protein mkt1, putative)",1.04
same,fold change,protein LMJF.30.3520 S-ADENOSYLMETHIONINE SYNTHETASE,0.86
same,fold change,"protein LMJF.30.3570 ZINC FINGER-DOMAIN PROTEIN, PUTATIVE",0.86
same,fold change relative to vehicle control,"protein LMJF.31.0080, HYPOTHETICAL PROTEIN, CONSERVED",1.2
same,fold change vs vehicle control,"protein LMJF.31.0340 AMINO ACID PERMEASE, PUTATIVE",1.17
same,fold change,"protein LMJF.31.1130 N-ACYL-L-AMINO ACID AMIDOHYDROLASE, PUTATIVE",0.98
same,fold change vs vehicle control,protein LMJF.31.1640 THIOLASE PROTEIN-LIKE PROTEIN,1.09
same,fold change relative to vehicle control,"protein LMJF.31.2150, PROSTAGLANDIN F2-ALPHA SYNTHASE/D-ARABINOSE DEHYDROGENASE",1.02
same,fold change vs vehicle control,"protein LMJF.31.2250 3,2-TRANS-ENOYL-COA ISOMERASE, MIT[…], PUTATIVE",0.97
same,fold change vs vehicle control,"protein LMJF.32.0750 RNA BINDING PROTEIN, PUTATIVE",1.19
same,fold change vs vehicle control,"protein LMJF.32.1060 DYNEIN, PUTATIVE",0.96
same,fold change relative to vehicle control,"protein LMJF.32.1820, IRON […], PUTATIVE",1.08
same,fold change relative to vehicle control,"protein LMJF.32.2320, C-14 STEROL REDUCTASE, PUTATIVE",1.02
same,fold change relative to vehicle control,"protein LMJF.32.2950, NUCLEOSIDE DIPHOSPHATE KINASE B",0.94
same,fold change vs vehicle control,protein LMJF.32.3870 MYOSIN XXI,0.97
same,fold change relative to vehicle control,"protein LMJF.33.0240, THIOL-DEPENDENT REDUCTASE 1",1.18
same,fold change,"protein LMJF.33.0280 HYPOTHETICAL PROTEIN, CONSERVED",0.92
same,fold change relative to vehicle control,"protein LMJF.33.0890, HY[…], CONSERVED",1.01
same,fold change vs vehicle control,"protein LMJF.33.1070 HY[…], UNKNOWN FUNCTION",1.07
same,fold change vs vehicle control,"protein LMJF.33.1330 CYSTEINE CONJUGATE BETA-LYASE, AMINOTRANSFERASE- LIKE PROTEIN",1.04
same,fold change,"protein LMJF.33.1590 HYPOTHETICAL PROTEIN, CONSERVED (3-ketoacyl-CoA reductase, putative)",0.97
same,fold change relative to vehicle control,"protein LMJF.33.1860, ATP-BINDING CASSETTE PROTEIN SUBFAMILY D, MEMBER 3, PUTATIVE",1.15
same,fold change relative to vehicle control,"protein LMJF.33.2340, SUCCINYL-COA:3-KETOACID-COENZYME A TRANSFERASE, MIT[…], PUTATIVE",1.18
same,fold change relative to vehicle control,"protein LMJF.33.2440, HY[…], CONSERVED",1.19
same,fold change relative to vehicle control,"protein LMJF.33.2540, CARBOXYPEPTIDASE, PUTATIVE,METALLO-PEPTIDASE, CLAN MA(E), FAMILY M32",1.79
same,fold change,"protein LMJF.33.3150 40S RIBOSOMAL PROTEIN S13, PUTATIVE",0.88
same,fold change relative to vehicle control,"protein LMJF.34.0140, MALATE DEHYDROGENASE",1.47
same,fold change vs vehicle control,protein LMJF.34.0440 RIBOSOMAL PROTEIN S25,1.1
same,fold change relative to vehicle control,"protein LMJF.34.2580, HY[…], CONSERVED (ALBA-domain protein 3)",1.11
same,fold change relative to vehicle control,"protein LMJF.34.3250, PUTATIVE PYRUVATE/INDOLE-PYRUVATE CARBOXYLASE, PUTATIVE",0.98
same,fold change,"protein LMJF.34.4370 20S […] 7 SUBUNIT, (PUTATIVE)",0.96
same,fold change vs vehicle control,"protein LMJF.34.4620 HY[…], CONSERVED",1.01
same,fold change,"protein LMJF.35.0070 PROHIBITIN, PUTATIVE",1.04
same,fold change vs vehicle control,"protein LMJF.35.0360 ENOYL-COA HYDRATASE/ISOMERASE FAMILY PROTEIN, CONSERVED",1.24
same,fold change,"protein LMJF.35.0370 ATP-DEPENDENT DEAD-BOX RNA HELICASE, PUTATIVE",1.08
